Experiment [1] deals with T1, Tyrosine-protein phosphatase non-receptor type 1 (Homo sapiens, UniProt P18031).
T1 sequence (P18031 whole entry): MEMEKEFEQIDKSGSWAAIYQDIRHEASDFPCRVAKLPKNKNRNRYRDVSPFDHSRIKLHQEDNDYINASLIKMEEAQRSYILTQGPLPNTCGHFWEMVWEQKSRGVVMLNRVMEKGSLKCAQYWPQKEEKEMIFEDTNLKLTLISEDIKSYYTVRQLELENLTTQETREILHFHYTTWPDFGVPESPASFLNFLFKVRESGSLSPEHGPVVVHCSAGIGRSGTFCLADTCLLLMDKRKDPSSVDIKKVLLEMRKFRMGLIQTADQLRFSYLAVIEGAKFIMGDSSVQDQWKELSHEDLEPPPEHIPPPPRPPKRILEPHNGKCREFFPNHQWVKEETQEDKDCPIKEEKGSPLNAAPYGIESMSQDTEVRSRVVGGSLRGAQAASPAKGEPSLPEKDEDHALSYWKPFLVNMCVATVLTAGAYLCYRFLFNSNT
In words: Inhibition of PTP1B mediated pNPP hydrolysis.

In experiment [2] the target is Receptor-type tyrosine-protein phosphatase F (Homo sapiens, UniProt P10586). In words: Inhibition of LAR.
Sequence of Receptor-type tyrosine-protein phosphatase F (P10586 whole entry): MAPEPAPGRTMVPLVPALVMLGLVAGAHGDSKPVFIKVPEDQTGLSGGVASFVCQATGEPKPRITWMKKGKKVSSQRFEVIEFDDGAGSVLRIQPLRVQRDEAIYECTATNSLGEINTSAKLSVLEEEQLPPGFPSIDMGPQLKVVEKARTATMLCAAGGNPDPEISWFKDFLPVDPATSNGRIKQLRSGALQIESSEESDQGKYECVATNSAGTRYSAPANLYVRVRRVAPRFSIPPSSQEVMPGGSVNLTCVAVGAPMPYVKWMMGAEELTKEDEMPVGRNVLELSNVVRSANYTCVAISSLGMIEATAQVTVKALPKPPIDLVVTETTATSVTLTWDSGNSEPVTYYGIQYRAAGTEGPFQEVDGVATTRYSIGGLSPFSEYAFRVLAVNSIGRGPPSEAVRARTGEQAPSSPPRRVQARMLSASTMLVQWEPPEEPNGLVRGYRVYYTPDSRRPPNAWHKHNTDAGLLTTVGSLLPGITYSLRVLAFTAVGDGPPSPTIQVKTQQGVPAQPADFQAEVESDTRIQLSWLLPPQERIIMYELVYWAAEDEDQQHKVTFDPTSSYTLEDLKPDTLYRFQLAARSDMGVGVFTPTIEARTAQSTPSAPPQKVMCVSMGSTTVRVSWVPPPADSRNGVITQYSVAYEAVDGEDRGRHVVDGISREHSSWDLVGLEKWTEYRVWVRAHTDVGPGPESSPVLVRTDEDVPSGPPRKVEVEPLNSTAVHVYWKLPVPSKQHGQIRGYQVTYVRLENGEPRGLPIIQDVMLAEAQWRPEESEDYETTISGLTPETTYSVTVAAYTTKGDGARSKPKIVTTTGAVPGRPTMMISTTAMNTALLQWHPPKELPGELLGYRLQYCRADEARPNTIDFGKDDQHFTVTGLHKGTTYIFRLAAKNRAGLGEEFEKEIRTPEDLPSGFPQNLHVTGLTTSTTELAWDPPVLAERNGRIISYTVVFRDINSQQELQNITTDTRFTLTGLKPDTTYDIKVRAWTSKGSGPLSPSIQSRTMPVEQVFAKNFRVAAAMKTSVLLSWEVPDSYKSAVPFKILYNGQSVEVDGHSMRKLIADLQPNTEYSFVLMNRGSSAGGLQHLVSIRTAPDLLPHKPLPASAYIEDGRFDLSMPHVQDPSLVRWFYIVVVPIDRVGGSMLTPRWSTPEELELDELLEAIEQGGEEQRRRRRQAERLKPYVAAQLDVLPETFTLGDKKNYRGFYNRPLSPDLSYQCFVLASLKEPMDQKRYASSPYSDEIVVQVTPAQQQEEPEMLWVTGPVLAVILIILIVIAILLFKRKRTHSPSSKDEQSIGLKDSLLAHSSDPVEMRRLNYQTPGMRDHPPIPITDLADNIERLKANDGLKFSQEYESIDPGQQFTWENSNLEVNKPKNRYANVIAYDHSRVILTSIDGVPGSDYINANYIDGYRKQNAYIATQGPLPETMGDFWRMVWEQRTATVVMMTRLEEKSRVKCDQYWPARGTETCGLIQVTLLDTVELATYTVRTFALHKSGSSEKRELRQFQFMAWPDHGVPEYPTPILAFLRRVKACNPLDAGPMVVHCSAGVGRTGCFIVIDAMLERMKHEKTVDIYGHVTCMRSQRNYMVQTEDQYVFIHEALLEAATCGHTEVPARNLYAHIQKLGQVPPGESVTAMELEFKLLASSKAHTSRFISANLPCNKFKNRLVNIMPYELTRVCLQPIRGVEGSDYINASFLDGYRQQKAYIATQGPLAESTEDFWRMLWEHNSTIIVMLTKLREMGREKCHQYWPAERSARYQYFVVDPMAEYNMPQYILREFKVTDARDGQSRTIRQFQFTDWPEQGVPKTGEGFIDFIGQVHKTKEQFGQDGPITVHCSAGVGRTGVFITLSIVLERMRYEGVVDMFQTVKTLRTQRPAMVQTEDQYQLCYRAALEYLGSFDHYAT
Experiment [3] concerns the target T2, Tyrosine-protein phosphatase non-receptor type 11 (Homo sapiens, UniProt Q06124).
T2 sequence (Q06124 whole entry): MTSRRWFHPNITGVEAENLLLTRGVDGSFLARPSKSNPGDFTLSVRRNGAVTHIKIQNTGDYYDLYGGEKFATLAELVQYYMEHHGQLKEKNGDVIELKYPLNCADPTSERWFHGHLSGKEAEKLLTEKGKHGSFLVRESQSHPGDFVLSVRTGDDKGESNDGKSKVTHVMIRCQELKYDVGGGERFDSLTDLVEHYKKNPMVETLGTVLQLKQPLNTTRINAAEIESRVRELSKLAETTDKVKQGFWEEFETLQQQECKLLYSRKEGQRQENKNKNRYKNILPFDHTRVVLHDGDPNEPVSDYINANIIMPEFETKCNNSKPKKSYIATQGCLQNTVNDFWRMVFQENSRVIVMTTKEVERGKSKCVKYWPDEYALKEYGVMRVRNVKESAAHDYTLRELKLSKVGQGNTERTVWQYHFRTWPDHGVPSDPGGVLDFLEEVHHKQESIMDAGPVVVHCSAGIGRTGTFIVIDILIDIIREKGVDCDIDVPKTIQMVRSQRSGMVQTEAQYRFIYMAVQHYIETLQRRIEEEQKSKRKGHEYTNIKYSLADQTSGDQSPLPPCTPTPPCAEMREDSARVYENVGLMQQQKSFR
In words: Inhibition of SHP-2.

For experiment [4], the target named is T1, Tyrosine-protein phosphatase non-receptor type 1. Put plainly: Competitive inhibition of PTP1B mediated pNPP hydrolysis by Lineweaver-Burke plot analysis.
The target of experiment [5] is T3, Receptor-type tyrosine-protein phosphatase C (Homo sapiens, UniProt P08575).
T3 sequence (P08575 whole entry): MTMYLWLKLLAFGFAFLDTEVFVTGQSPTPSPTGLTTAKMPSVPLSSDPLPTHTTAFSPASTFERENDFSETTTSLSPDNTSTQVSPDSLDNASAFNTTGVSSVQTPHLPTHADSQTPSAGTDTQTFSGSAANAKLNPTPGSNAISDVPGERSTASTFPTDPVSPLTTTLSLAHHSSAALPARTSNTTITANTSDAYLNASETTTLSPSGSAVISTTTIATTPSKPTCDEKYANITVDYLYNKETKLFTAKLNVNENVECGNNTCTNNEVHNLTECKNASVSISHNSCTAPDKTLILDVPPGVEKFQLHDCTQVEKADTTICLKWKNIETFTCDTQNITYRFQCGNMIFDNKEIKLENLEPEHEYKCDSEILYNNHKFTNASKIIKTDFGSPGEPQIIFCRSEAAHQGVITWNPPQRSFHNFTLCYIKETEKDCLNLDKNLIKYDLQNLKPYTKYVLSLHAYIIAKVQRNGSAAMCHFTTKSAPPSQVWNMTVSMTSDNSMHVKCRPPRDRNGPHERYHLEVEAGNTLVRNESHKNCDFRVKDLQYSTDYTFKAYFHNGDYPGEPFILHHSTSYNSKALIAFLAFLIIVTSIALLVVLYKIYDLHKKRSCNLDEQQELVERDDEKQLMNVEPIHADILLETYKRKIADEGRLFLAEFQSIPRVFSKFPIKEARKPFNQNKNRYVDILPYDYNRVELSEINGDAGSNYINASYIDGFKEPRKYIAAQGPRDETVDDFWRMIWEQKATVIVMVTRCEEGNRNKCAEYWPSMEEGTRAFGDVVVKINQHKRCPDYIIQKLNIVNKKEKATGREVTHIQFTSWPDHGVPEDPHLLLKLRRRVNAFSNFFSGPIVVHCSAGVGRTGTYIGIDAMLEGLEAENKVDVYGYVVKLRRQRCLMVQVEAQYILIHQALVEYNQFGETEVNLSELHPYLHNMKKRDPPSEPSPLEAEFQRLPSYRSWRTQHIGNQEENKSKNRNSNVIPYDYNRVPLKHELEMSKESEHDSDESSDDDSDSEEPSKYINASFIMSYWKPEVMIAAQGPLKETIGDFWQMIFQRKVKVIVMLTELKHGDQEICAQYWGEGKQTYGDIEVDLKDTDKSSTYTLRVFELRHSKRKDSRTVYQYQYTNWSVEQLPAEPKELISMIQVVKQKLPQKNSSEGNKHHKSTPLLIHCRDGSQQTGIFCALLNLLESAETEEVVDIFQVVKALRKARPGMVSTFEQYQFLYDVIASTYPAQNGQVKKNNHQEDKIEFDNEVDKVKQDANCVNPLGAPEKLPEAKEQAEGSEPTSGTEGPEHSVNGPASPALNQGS
In words: Inhibition of CD45.

Experiment [6] addresses T4, Tyrosine-protein phosphatase non-receptor type 2 (Homo sapiens, UniProt P17706).
T4 sequence (P17706 whole entry): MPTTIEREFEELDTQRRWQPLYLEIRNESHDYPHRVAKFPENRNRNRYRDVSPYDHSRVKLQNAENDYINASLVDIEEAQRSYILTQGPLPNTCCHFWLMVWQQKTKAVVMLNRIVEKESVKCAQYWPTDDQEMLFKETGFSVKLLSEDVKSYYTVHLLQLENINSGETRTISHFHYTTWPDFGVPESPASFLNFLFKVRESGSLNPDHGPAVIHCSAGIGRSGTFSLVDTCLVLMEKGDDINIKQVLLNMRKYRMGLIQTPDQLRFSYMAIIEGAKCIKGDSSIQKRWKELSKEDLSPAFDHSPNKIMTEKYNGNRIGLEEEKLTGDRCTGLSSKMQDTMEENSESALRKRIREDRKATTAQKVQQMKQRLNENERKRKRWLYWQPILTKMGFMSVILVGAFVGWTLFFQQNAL
Put plainly: Inhibition of TCPTP.

Experiment [7] addresses T5, Tyrosine-protein phosphatase non-receptor type 1 (Homo sapiens) (UniProt P18031).
T5 sequence (whole entry): T1 sequence (P18031 whole entry)
In words: Inhibition of PTP1B mediated pNPP hydrolysis at 178 uM.

Consider `CCCCCCCCCCCCCCCc1cc(O[C@@H]2O[C@H](CO)[C@@H](O)[C@H](O)[C@H]2O)cc(O)c1C(=O)Oc1cc(C)c(C(=O)OC)c(O)c1`, for which, in experiment [1] (read-out: IC50), the IC50 (usually the concentration at which inhibition is half-maximal) was 17000 nM.

Turning to `CCCCCCCCCCCCCCCc1cc(O[C@@H]2O[C@H](CO)[C@@H](O)[C@H](O)[C@H]2O)cc(O)c1C(=O)Oc1cc(C)c(C(=O)O)c(O)c1` [AQUASTATIN A], the IC50 in experiment [2] is > 44000 nM; in experiment [3], > 44000 nM; in experiment [1] it was “Dose-dependent effect”; in experiment [1] (read-out: IC50), 190 nM; in experiment [5] it was > 44000 nM; in experiment [6], 510 nM. Also, the Ki (usually a measure of affinity in units of concentration, obtained from inhibition or displacement) in experiment [4] is 100 nM.

On to `Cc1cc(O)cc(O)c1C(=O)O`, for which the inhibition (usually the drop in the measured response relative to a control, in per cent) in experiment [7] is 45%.

On to `CCCCCCCCCCCCCCCc1cc(O[C@@H]2O[C@H](CO)[C@@H](O)[C@H](O)[C@H]2O)cc(O)c1C(=O)O`, for which the IC50 result in experiment [1] was “Dose-dependent effect”; in experiment [1] (read-out: IC50), 590 nM.

`CCCCCCCCCCCCCCCc1cc(O)cc(O)c1C(=O)Oc1cc(C)c(C(=O)O)c(O)c1`: the IC50 in experiment [1] (read-out: IC50) was 220 nM.
